Here are results for one molecule from patent publication US20080131406A1, “Angiotensin I Derivatives” (NATIONAL UNVERSITY OF SINGAPORE, priority 2005, published 2008).

Experiment [1] relates to experimentally-induced cardiac hypertrophic rats. The experiment can be described thus: Cardiac hypertrophy induced by abdominal aorta coarctation in rats. Type of experiment: in vivo, Sprague Dawley (SD) rats. The settings on record: for Hypertrophy Index (ventricle weight in mg/body weight in g): aorta-coarcted rats, mean ± SEM, 10 rats. As for the experimental part:
The experimental protocol for induction of cardiac hypertrophy in rats was carried out as described by Everett et al (Hypertension, 23:587-592 (1994)). In this procedure, each rat was anaesthetized with 7% w/v chloral hydrate (0.35 g/kg, intraperitoneally). An incision was made in the ventral abdominal wall to access the suprarenal portion of the abdominal aorta. This portion of the abdominal aorta was dissected free and a blunt 23-guage needle was placed adjacent to the aorta. A ligature was placed around the blunt needle and the aorta. The blunt needle was then removed, leaving the aorta constricted to the size of the needle. The resulting coarctation resisted the normal flow of blood from the heart to the lower portion of the body and placed an extra load on the heart. This extra load causes hypertrophy of the heart, especially the left ventricle.
Following surgery, each animal was placed in a cage. The animals had access to water and rat chow ad libitum. The animals were randomly divided into the control group and treatment group. Each group consisted of 10 animals. The treatment group was orally administered various doses of angiotensin IV (95-380 nmoles/kg/day or 74-294 μg/kg/day) dissolved in 0.5 ml saline for four days commencing on the day of surgery. Control animals with coarcted abdominal aorta were administered saline instead of the angiotensin IV solution. Sham animals were animals that underwent the same surgical operations but their aortas were not coarcted.
On the fifth day following surgery, animals were anaesthetised as before. The heart of each animal was then excised, the ventricles dissected and the weight of the ventricles was determined. The index of the ventricle weight (in mg) over the body weight of the animal (in g) was taken as the index of hypertrophy. For sham-operated animals the index was around 2.6, for aorta-coarcted animas the index was above 3.7.
Data were expressed as mean ±SEM. Significant differences were determined by one-way ANOVA and post hoc Newman Kleuf test. The accepted level of significance was p<0.05. […] The effect was dose-dependent and significant anti-cardiac hypertrophic action was brought about by an oral dose of 190 nmoles/kg/day (or 147 μg/kg/day).

For experiment [2], the system named is neointima formation in catheter-injured carotid artery. The experiment can be described thus: Neointima formation after balloon catheter injury of the left carotid artery in rats. It counts as in vivo, Sprague Dawley (SD) rats. The settings on record: for % of Lumen Occlusion by Neointima (in catheter-injured carotid artery): mean ± SEM, 6 rats. From the text:
SD rats were subjected to left carotid artery injury by the balloon technique according to the method described by Indolfi et al (Circulation, 92:1230-1235 (1995)). In this procedure, rats were anesthetized with chloral hydrate (0.35 g/kg) and a balloon catheter (2F Fogarty, Edwards Laboratories) was introduced through the left external carotid artery into the common carotid artery. The balloon was inflated to a pressure of 2.2 kg/cm^2 by compressed carbogen gas mixture (95% O2 and 5% CO2) and passed three times (three cycles) along the common carotid artery. The catheter was removed, the left external carotid artery was ligated, and the wound was closed. Formation of neointima in the catheter-injured carotid artery occurred and slowed considerably after 14 days (Clowes and Clowes, Lab. Invest., 52:611-616 (1985)). The right common carotid artery was left intact and served as the control artery.
Following the surgery, each animal was placed in a cage. The animals had access to water and rat chow ad libitum. The animals were randomly divided into the control group and treatment group. Each group consisted of 6 animals. The treatment group was orally administered various doses of angiotensin IV (60-360 nmoles/kg/day or 46.5-279 μg/kg/day) dissolved in 0.5 ml saline for 13 days commencing on the day of surgery. Control animals were balloon catheterized animals that were administered saline instead of the angiotensin IV solution.
On the fourteenth day following balloon catheterization, animals were anesthetized as before and both the left and right common arteries of each rat were fixed by perfusion at 120 mm Hg with 100 ml of saline followed by 250 ml of 0.1 M phosphate buffer (pH 7.4) containing 4% paraformaldehyde and 1% glutaralaldehyde and processed for paraffin embedment. Sections of 10 μm thickness were prepared and stained with toluidine blue. Twenty of such sections were cut from the midportion of the artery towards the distal end and used for morphometric evaluation of neointima formation. The area of the medial smooth muscle cells, lumen, and neointima of each section was morphometrically quantitated using an image analysis system consisting of a BX40 light microscope (Olympus, Japan) fitted with a KY-F55B color video camera (JVC, Japan) and a Pentium 166 MHz/MMX microcomputer (Datamini, Singapore) installed with an Image Pro Plus 3.0 System (Media Cybernetics, USA) for Windows 95™. The extent of neointima formation was expressed as a percentage of occlusion of the lumen by the neointima.

As for `CC[C@H](C)[C@H](NC(=O)[C@H](Cc1ccc(O)cc1)NC(=O)[C@@H](N)C(C)C)C(=O)N[C@@H](Cc1cnc[nH]1)C(=O)N1CCC[C@H]1C(=O)N[C@@H](Cc1ccccc1)C(=O)O` [angiotensin IV], the “Hypertrophy Index (ventricle weight in mg/body weight in g)” value in experiment [1] (95 nmole/kg/day oral for 4 days) was 3.73 ± 0.04; in experiment [1] (190 nmole/kg/day oral for 4 days, significantly different from Control (p < 0.05)), “*3.23 ± 0.07”; in experiment [1] (380 nmole/kg/day oral for 4 days, significantly different from Control (p < 0.05)) it was “*3.40 ± 0.07”. Further, in experiment [1] (oral, 4 days, effect dose-dependent, or 147 μg/kg/day), the “oral dose bringing about significant anti-cardiac hypertrophic action” value is 190 nmol/kg/day. Moreover, the “% of Lumen Occlusion by Neointima (in catheter-injured carotid artery)” value was 52 ± 5% in experiment [2] (60 nmole/kg/day oral for 13 days); 48 ± 1% in experiment [2] (120 nmole/kg/day oral for 13 days); “*43 ± 2%” in experiment [2] (240 nmole/kg/day oral for 13 days, significantly different from Control (p < 0.05)); “*44 ± 2%” in experiment [2] (360 nmole/kg/day oral for 13 days, significantly different from Control (p < 0.05)). Besides, the “oral dose bringing about maximum anti-neointima action” value in experiment [2] (oral for 13 days, action dose-dependent, or 186 μg/kg/day) came to 240 nmol/kg/day. In addition, the “effect on the thickness of the medial muscle layer” value in experiment [2] (oral, 13 days, catheter-injured carotid artery) is listed as “no significant effect”.
